Structures can show the parent of a compound that is named as a salt.
Key:
[1] = test system: 40 different bacterial species; test: Prestwick Chemical Library growth screen, whole panel (hits, anticommensal activity); type: cell-based, human gut isolates; conditions: for anticommensal activity in the screen (in words): 20 μM, 40 strains, FDR<0.01
[2] = test system: Clostridium perfringens (NT5032); type: cell-based; conditions: screen at 20 μM
[3] = test system: Clostridium difficile (NT5083); test: Prestwick Chemical Library growth screen (OD578 growth curves, AUC); type: cell-based; conditions: screen at 20 μM
[4] = test system: Bacteroides fragilis (ET) (NT5033); type: cell-based, Bacteroides fragilis enterotoxigenic; conditions: screen at 20 μM
[5] = test system: Bacteroides ovatus (NT5054); test: Prestwick Chemical Library growth screen (OD578 growth curves, AUC); type: cell-based; conditions: FIG. 8b, three biological replicates, 20 μM
[6] = number of species inhibited of 40 different bacterial species tested
[7] = number of the 40 bacterial species tested whose growth is inhibited, Table 7 broad-spectrum compounds
[8] = number of the 40 strains inhibited at 20 μM (FDR<0.01)

C[C@H]1O[C@H](O[C@H]2[C@H](O)[C@@H](O)[C@@H](O[C@H]3[C@H](O)[C@@H](O)C(O)O[C@@H]3CO)O[C@@H]2CO)[C@H](O)[C@@H](O)[C@@H]1N[C@H]1C=C(CO)[C@@H](O)[C@H](O)[C@H]1O (stereo partly drawn) [Acarbose] was tested, and the n_hit [1, 6] was 6.
In the case of C=C1/C(=C\C=C2/CCC[C@]3(C)[C@@H]([C@H](C)CCCC(C)C)CC[C@@H]23)C[C@@H](O)C[C@@H]1O [Alfacalcidol], the “selective inhibition of the growth of C. perfringens bacteria (in words)” value [2] is reported as “selectively inhibiting the growth” and the n_hit [1, 6] is reported as 7.
CCCCc1oc2ccccc2c1C(=O)c1cc(I)c(OCCN(CC)CC)c(I)c1 [Amiodarone hydrochloride] was tested, and the n_hit [1, 7] was 10.
Compound CCOC(=O)C1=C(COCCN)NC(C)=C(C(=O)OC)C1c1ccccc1Cl (stereo not drawn) [Amlodipine] has a n_hit [1, 8] of 2.
Compound O=C1c2c(O)cccc2Cc2cccc(O)c21 [Anthralin] has a n_hit [1, 7] of 11.
C[C@@H](O[C@H]1OCCN(Cc2n[nH]c(=O)[nH]2)[C@H]1c1ccc(F)cc1)c1cc(C(F)(F)F)cc(C(F)(F)F)c1 [Aprepitant] showed a n_hit [1, 7] of 10.
O=C1CCc2ccc(OCCCCN3CCN(c4cccc(Cl)c4Cl)CC3)cc2N1 [Aripiprazole] was tested, and the n_hit [1, 6] was 3.
COc1ccc(CCN2CCC(Nc3nc4ccccc4n3Cc3ccc(F)cc3)CC2)cc1 [Astemizole] showed a n_hit [1, 7] of 10.
Nc1ncn(C2OC(CO)C(O)C2O)c(=O)n1 (stereo not drawn) [Azacytidine-5] was tested, and the “selective inhibition of the growth of C. perfringens bacteria (in words)” value [2] was “selectively inhibiting the growth” and the n_hit [1, 6] was 1.
In the case of Cn1cnc([N+](=O)[O-])c1Sc1ncnc2nc[nH]c12 [Azathioprine], the “inhibition of the growth of C. difficile bacteria (in words)” value [3] is reported as “effective in inhibiting the growth” and the n_hit [1, 8] is reported as 7.
With CC(C)COCC(CN(Cc1ccccc1)c1ccccc1)N1CCCC1 (stereo not drawn) [Bepridil hydrochloride] the n_hit [1, 7] was 14.
CC1(C)[C@@H](OC(=O)CCC(=O)O)CC[C@]2(C)[C@H]3C(=O)C=C4[C@@H]5C[C@@](C)(C(=O)O)CC[C@]5(C)CC[C@@]4(C)[C@]3(C)CC[C@@H]12 [Carbenoxolone disodium salt] was tested, and the “inhibition of the growth of C. difficile bacteria (in words)” value [3] was “effective in inhibiting the growth” and the n_hit [1, 8] was 2.
For CN(C)CCCN1c2ccccc2Sc2ccc(Cl)cc21 [Chlorpromazine hydrochloride], the “selective inhibition of the growth of C. perfringens bacteria (in words)” value [2] was “selectively inhibiting the growth” and the n_hit [1, 6] was 6.
For COCCOC(=O)C1=C(C)NC(C)=C(C(=O)OC/C=C/c2ccccc2)C1c1cccc([N+](=O)[O-])c1 (stereo not drawn) [Cilnidipine], the “selective inhibition of the growth of an enterotoxigenic strain of Bacteroides fragilis (in words)” value [4] was “selectively inhibiting the growth”, the “inhibition of the growth of C. difficile bacteria (in words)” value [3] was “effective in inhibiting the growth” and the n_hit [1, 8] was 5.
Work on Clc1ccc(Cn2c(CN3CCCC3)nc3ccccc32)cc1 [Clemizole hydrochloride] yielded a n_hit [1, 7] of 15.
In the case of CC(=O)Oc1cccc2c1C(=O)c1c(OC(C)=O)cc(C(=O)O)cc1C2=O [Diacerein], the “effect on growth curves (normalized OD/AUC) of Bacteroides ovatus (in words)” value [5] is reported as “almost completely inhibits the growth” and the n_hit [1, 7] is reported as 33.
Work on O=c1oc2ccccc2c(O)c1Cc1c(O)c2ccccc2oc1=O [Dicumarol] yielded a n_hit [1, 7] of 10.
In the case of CCCCC(=O)O[C@H]1CC[C@H]2[C@@H]3CCc4cc(O)ccc4[C@H]3CC[C@]12C [Estradiol Valerate], the n_hit [1, 7] is reported as 11.
For C=C(CC)C(=O)c1ccc(OCC(=O)O)c(Cl)c1Cl [Ethacrynic acid], the “selective inhibition of the growth of an enterotoxigenic strain of Bacteroides fragilis (in words)” value [4] was “selectively inhibiting the growth”, the “selective inhibition of the growth of C. perfringens bacteria (in words)” value [2] was “selectively inhibiting the growth” and the n_hit [1, 6] was 6.
CCN(CC)C(C)CN1c2ccccc2Sc2ccccc21 (stereo not drawn) [Ethopropazine hydrochloride] gave a n_hit [1, 7] of 11.
In the case of CCOC(=O)/C=C(C)/C=C/C=C(C)/C=C/c1c(C)cc(OC)c(C)c1C [Etretinate], the “selective inhibition of the growth of C. perfringens bacteria (in words)” value [2] is reported as “selectively inhibiting the growth” and the n_hit [1, 6] is reported as 1.
With CC(NCCC(c1ccccc1)c1ccccc1)c1ccccc1 (stereo not drawn) [Fendiline hydrochloride] the “inhibition of the growth of C. difficile bacteria (in words)” value [3] was “effective in inhibiting the growth” and the n_hit [1, 8] was 8.
O=C(O)Cc1sc(-c2ccccc2)nc1-c1ccc(Cl)cc1 [Fentiazac] was tested, and the “inhibition of the growth of C. difficile bacteria (in words)” value [3] was “effective in inhibiting the growth” and the n_hit [1, 8] was 1.
In the case of O=C(O)c1ccccc1Nc1cccc(C(F)(F)F)c1 [Flufenamic acid], the n_hit [1, 6] is reported as 4.
Compound Nc1nc2ncc(CNc3ccc(C(=O)N[C@@H](CCC(=O)O)C(=O)O)cc3)nc2c(=O)[nH]1 [Folic acid] has a n_hit [1, 6] of 2.
With Nc1ccn([C@@H]2O[C@H](CO)[C@@H](O)C2(F)F)c(=O)n1 [Gemcitabine] the “selective inhibition of the growth of C. perfringens bacteria (in words)” value [2] was “selectively inhibiting the growth” and the n_hit [1, 6] was 2.
For COc1ccc2c(c1)C(=O)N(CCc1ccc(S(=O)(=O)NC(=O)NC3CCCCC3)cc1)C(=O)C2(C)C [Gliquidone], the “inhibition of the growth of C. difficile bacteria (in words)” value [3] was “effective in inhibiting the growth” and the n_hit [1, 8] was 1.
In the case of COC1=C(OC)C(=O)C(CCCCCCCCCCO)=C(C)C1=O [Idebenone], the “selective inhibition of the growth of C. perfringens bacteria (in words)” value [2] is reported as “selectively inhibiting the growth” and the n_hit [1, 6] is reported as 3.
CCOC(=O)C1=C(C)NC(C)=C(C(=O)OCC)C1c1ccccc1/C=C/C(=O)OC(C)(C)C [Lacidipine] was tested, and the “inhibition of the growth of C. difficile bacteria (in words)” value [3] was “effective in inhibiting the growth” and the n_hit [1, 8] was 6.
Compound CCOC(=O)N1CCC(=C2c3ccc(Cl)cc3CCc3cccnc32)CC1 [Loratadine] has a n_hit [1, 7] of 15.
In the case of Cc1ccc(Cl)c(Nc2ccccc2C(=O)O)c1Cl [Meclofenamic acid], the “selective inhibition of the growth of an enterotoxigenic strain of Bacteroides fragilis (in words)” value [4] is reported as “selectively inhibiting the growth”, the “effect on growth curves (normalized OD/AUC) of Bacteroides ovatus (in words)” value [5] is reported as “just below the hit threshold” and the n_hit [1, 6] is reported as 5.
For Cc1cccc(CN2CCN(C(c3ccccc3)c3ccc(Cl)cc3)CC2)c1 (stereo not drawn) [Meclozine dihydrochloride], the “inhibition of the growth of C. difficile bacteria (in words)” value [3] was “effective in inhibiting the growth” and the n_hit [1, 8] was 8.
For S=c1nc[nH]c2nc[nH]c12 [Mercaptopurine], the “inhibition of the growth of C. difficile bacteria (in words)” value [3] was “effective in inhibiting the growth” and the n_hit [1, 8] was 4.
For CSc1ccc2c(c1)C(N1CCN(C)CC1)Cc1ccccc1S2.O=C(O)/C=C\C(=O)O (stereo not drawn) [Methiothepin maleate], the n_hit [1, 7] was 10.
With CN1CCCC(CC2c3ccccc3Sc3ccccc32)C1 (stereo not drawn) [Metixene hydrochloride] the “selective inhibition of the growth of an enterotoxigenic strain of Bacteroides fragilis (in words)” value [4] was “selectively inhibiting the growth” and the n_hit [1, 6] was 9.
In the case of CC#C[C@]1(O)CC[C@H]2[C@@H]3CCC4=CC(=O)CCC4=C3[C@@H](c3ccc(N(C)C)cc3)C[C@@]21C [Mifepristone], the “inhibition of the growth of C. difficile bacteria (in words)” value [3] is reported as “effective in inhibiting the growth” and the n_hit [1, 8] is reported as 3.
C[C@@H]1C[C@H]2[C@@H]3CCC4=CC(=O)C=C[C@]4(C)[C@@]3(Cl)[C@@H](O)C[C@]2(C)[C@@]1(OC(=O)c1ccco1)C(=O)CCl [Mometasone furoate] was tested, and the n_hit [1, 6] was 1.
CC(C)(O)c1ccccc1CC[C@@H](SCC1(CC(=O)O)CC1)c1cccc(/C=C/c2ccc3ccc(Cl)cc3n2)c1 [Montelukast] gave a n_hit [1, 8] of 8.
With CC(=O)O[C@H]1C(=O)[C@@]2(C)[C@H]([C@H](OC(=O)c3ccccc3)[C@]3(O)C[C@H](OC(=O)[C@H](O)[C@@H](NC(=O)c4ccccc4)c4ccccc4)C(C)=C1C3(C)C)[C@]1(OC(C)=O)CO[C@@H]1C[C@@H]2O [Paclitaxel] the “selective inhibition of the growth of C. perfringens bacteria (in words)” value [2] was “selectively inhibiting the growth” and the n_hit [1, 6] was 1.
O=C1c2ccccc2C(=O)C1c1ccccc1 [Phenindione] was tested, and the “selective inhibition of the growth of C. perfringens bacteria (in words)” value [2] was “selectively inhibiting the growth” and the n_hit [1, 6] was 1.
In the case of CNCCCC1c2ccccc2C=Cc2ccccc21 [Protriptyline hydrochloride], the “selective inhibition of the growth of an enterotoxigenic strain of Bacteroides fragilis (in words)” value [4] is reported as “selectively inhibiting the growth” and the n_hit [1, 6] is reported as 8.
With CCCc1nc2c(C)cc(-c3nc4ccccc4n3C)cc2n1Cc1ccc(-c2ccccc2C(=O)O)cc1 [Telmisartan] the “inhibition of the growth of C. difficile bacteria (in words)” value [3] was “effective in inhibiting the growth” and the n_hit [1, 8] was 4.
With N[C@@H](Cc1cc(I)c(Oc2cc(I)c(O)c(I)c2)c(I)c1)C(=O)O [Thyroxine (L)] the n_hit [1, 6] was 3.
Compound O=C(O)Cc1cc(I)c(Oc2ccc(O)c(I)c2)c(I)c1 [Tiratricol] has a n_hit [1, 7] of 14.
In the case of Cc1cccc(N(C)C(=S)Oc2ccc3ccccc3c2)c1 [Tolnaftate], the “selective inhibition of the growth of an enterotoxigenic strain of Bacteroides fragilis (in words)” value [4] is reported as “selectively inhibiting the growth” and the n_hit [1, 6] is reported as 5.
In the case of Cc1cc(-n2c(=O)[nH]c(=O)n(C)c2=O)ccc1Oc1ccc(SC(F)(F)F)cc1 [Toltrazuril], the “selective inhibition of the growth of an enterotoxigenic strain of Bacteroides fragilis (in words)” value [4] is reported as “selectively inhibiting the growth” and the n_hit [1, 6] is reported as 7.
For CCOC1O[C@H]([C@@H](COCc2ccccc2)OCc2ccccc2)[C@H](OCc2ccccc2)[C@H]1O (stereo partly drawn) [Tribenoside], the “inhibition of the growth of C. difficile bacteria (in words)” value [3] was “effective in inhibiting the growth” and the n_hit [1, 8] was 1.
Cc1c(C)c2c(c(C)c1O)CCC(C)(COc1ccc(CC3SC(=O)NC3=O)cc1)O2 (stereo not drawn) [Troglitazone] showed a n_hit [1, 7] of 13.
With O=C1Nc2ccc(Cl)cc2[C@@](C#CC2CC2)(C(F)(F)F)O1 [efavirenz] the “anticommensal activity in the screen (in words)” value [1] was “anticommensal activity”.
CCOC(=O)Nc1ccc2c(c1)N(C(=O)CCN1CCOCC1)c1ccccc1S2 [moricizine] was tested, and the “effect on growth curves (normalized OD/AUC) of Bacteroides ovatus (in words)” value [5] was “a hit with partial but strong growth inhibition”.
With O=c1[nH]c(=O)n([C@H]2C[C@H](O)[C@@H](CO)O2)cc1C(F)(F)F [trifluridine] the “anticommensal activity in the screen (in words)” value [1] was “anticommensal activity”.
